Assay [1] deals with Flp-In TREx 293 cell line. The assay can be described thus: D-[3H]serine uptake in Flp-In TREx 293 cell line in the presence of inhibitors. In kind it is cell-based. To be noted: 10 minutes. Here is the method: (§1) The cell lines HEK293 and Flp-In TREx 293 were cultured at 37° C. in a 5% CO2 environment, using Dulbecco's Modified Eagle Medium (DMEM) containing 10% fetal bovine serum (FBS), 100 units/ml Penicillin G and 100 μg/ml streptomycin (P/S). The cells were seeded in a Poly-D-lysine coated 24-well plate at 6×10^4 cells/well. After culturing for 3 days in DMEM Medium containing 10% FBS and P/S, the cell were used for transport activity measurement. Before transport activity measurement, the cells were washed with transport activity measurement buffer (PBS+1 g/L D-glucose) prewarmed to 37° C. and incubated for 10 minutes at 37° C. in 500 μL of buffer. The transport activity measurement was initiated by addition of D-[^3H]serine-containing transport activity buffer at the indicated concentration. The reaction product produced after addition was incubated at 37° C. for the indicated time. The reaction was suspended by removing the D-[^3H]serine-containing transport activity buffer, and the product was washed 3 times with thoroughly cooled transport activity buffer. The cells were dissolved with 500 μL of 0.1 N NaOH and incubated for at least one hour. Protein concentration of the cell lysate was measured by BCA protein assay. The lysate was mixed with 1 mL of Emulsifier Safe (PerkinElmer, MA, USA) and the radioactivity of the lysate was measured with a β-scintillation counter (LSC-8000, Hitachi). In transport activity measurement for Na^+, HBSS (+Na^+: 125 mM NaCl, −Na^+: choline chloride, 4.8 mM KCl, 1.2 mM MgSO4, 1.2 mM KH2PO4, 1.3 mM CaCl2), 5.6 mM D-glucose and 25 mM HEPES was used instead of PBS. For the inhibition experiment, a non-radioactive labeled compound was included as the uptake substrate as shown in the drawing.

For assay [2], the system named is mouse brush border membrane vesicles (BBMV). In words: D-[3H]serine transport activity measurement with mouse BBMVs. The format is biochemical. Here is the method: Total mouse kidneys were extracted by perfusion using PBS buffer at pH 7.4, and then immediately frozen with liquid nitrogen and stored at −80° C. until use. The frozen kidneys were resuspended in buffer containing 20 mM Tris-HCl at pH 7.6, 250 mM mannitol, 1 mM EDTA and Complete EDTA-free protease inhibitor cocktail (Roche, Switzerland), and crushed using a PHYSCOTRON (Microtec Co., Ltd.). The sample was then homogenized using a Potter-Elvehjem homogenizer. After centrifugation at 1,000×g for 5 minutes at 4° C., the supernatant was centrifuged at 3,000×g for 5 minutes at 4° C. After centrifugation, the supernatant was mixed with 1 M MgCl2 at a final concentration of 11 mM MgCl2, and incubated on ice for 20 minutes. This was followed by centrifugation at 3,000×g for 15 minutes at 4° C., and then ultracentrifugation of the supernatant containing crude membrane vesicles at 438,000×g for 30 minutes at 4° C. The pellet remaining after ultracentrifugation (BBMVs) was suspended in buffer containing 20 mM Tris-HCl at pH 7.6 and 250 mM mannitol. The BBMVs were quantified using a BCA protein quantitation kit (Thermo Fisher Scientific). The BBMVs were cryopreserved at −80° C. until use. Before transport activity measurement, the cryopreserved BBMVs were thawed to allow introduction of potassium into the BBMVs, after which they were ultracentrifuged at 438,000×g for 30 minutes at 4° C., and the pellet was then suspended in buffer containing 10 mM Tris-HCl at pH 7.6, 100 mM KCl and 100 mM mannitol to a 5 mg/mL protein concentration, and the BBMV suspension was incubated on ice overnight. Before measurement of the transport activity, valinomycin was added to the BBMV sample to a final concentration of 5 μM and the mixture was incubated at room temperature for 30 minutes. […] The used filter was melted with Clear-sol I (Nacalai Tesque, Inc.) and the radioactivity on the filter was measured using a β-scintillation counter (LSC-8000, Hitachi).

The target in a further assay is T1, ASCT2 (Homo sapiens, UniProt Q15758).
T1 construct: expressed in transfected cells; host or cells: HEK293 cells
T1 sequence (Q15758 1-541): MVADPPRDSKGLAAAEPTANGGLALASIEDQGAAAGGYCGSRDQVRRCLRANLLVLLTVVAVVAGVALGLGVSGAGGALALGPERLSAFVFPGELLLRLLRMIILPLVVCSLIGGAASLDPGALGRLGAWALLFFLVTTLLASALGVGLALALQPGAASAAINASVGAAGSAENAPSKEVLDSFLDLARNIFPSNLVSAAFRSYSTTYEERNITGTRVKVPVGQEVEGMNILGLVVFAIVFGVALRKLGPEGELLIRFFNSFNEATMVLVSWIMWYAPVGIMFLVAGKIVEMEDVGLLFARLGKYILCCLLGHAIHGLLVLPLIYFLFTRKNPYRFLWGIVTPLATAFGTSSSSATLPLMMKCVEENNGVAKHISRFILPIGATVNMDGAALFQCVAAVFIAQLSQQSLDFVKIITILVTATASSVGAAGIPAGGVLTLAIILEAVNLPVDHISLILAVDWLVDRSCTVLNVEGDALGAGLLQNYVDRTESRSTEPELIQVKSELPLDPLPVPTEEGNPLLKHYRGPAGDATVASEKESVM
The assay can be described thus: [3H]D-serine transport in HEK293 cells transfected with ASCT2. In kind it is cell-based.

For a further assay, the system named is HEK293 cells. The assay can be described thus: [3H]D-serine transport in HEK293 cells. In kind it is cell-based. To be noted: endogenous ASCT2. The procedure:
as §1

The next assay deals with T2, hSMCT1 (Homo sapiens, UniProt Q8N695).
T2 construct: A final pcDNA5-hSLC5A8_NM145913-3×FLAG positive clone was obtained and named “pcDNA5-hSLC5A8-3×FLAG”; expressed in transfected cells
T2 sequence (Q8N695 1-610): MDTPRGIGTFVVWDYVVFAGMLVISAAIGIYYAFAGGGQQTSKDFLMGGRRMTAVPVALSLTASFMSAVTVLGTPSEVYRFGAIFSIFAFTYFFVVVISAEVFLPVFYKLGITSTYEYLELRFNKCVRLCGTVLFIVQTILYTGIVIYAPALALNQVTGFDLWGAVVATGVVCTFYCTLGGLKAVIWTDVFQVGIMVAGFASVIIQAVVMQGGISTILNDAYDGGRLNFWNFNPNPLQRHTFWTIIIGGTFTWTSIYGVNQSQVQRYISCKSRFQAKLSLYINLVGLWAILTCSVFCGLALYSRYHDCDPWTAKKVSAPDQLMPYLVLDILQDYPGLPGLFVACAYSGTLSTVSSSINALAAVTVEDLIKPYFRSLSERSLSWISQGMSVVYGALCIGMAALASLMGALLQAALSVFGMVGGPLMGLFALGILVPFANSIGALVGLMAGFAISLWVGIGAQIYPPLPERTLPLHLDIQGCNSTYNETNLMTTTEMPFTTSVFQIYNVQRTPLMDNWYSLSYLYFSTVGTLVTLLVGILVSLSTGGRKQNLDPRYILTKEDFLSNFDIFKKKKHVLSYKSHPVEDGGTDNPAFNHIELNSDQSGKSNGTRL
The assay can be described thus: D-[3H]serine uptake in FlpIn293TR-hSLC5A8-3×FLAG stable cell line. In kind it is cell-based. The conditions noted are these: 20 μM D-[3H]serine, 10 minutes. Here is the method: (§2) The stable cell line FlpIn293 TR was seeded in a poly-D-lysine-coated 24-well plate at 5×10^4 cells/well (Mock) or 6×10^4 cells/well (hSLC5A8 and hSLC5A12 cells), and after 24 hours, 1 mg/L doxycycline hyclate was added to induce recombinant gene expression. The cells were continuously cultured for 2 days and transport activity measurement was conducted at 80% to 90% confluence. In an ASCT2 knockdown experiment, the seeded cells were transfected after 12 hours with ASCT2 siRNA at 10 pmol/well, using Lipofectamine 3000. Before transport activity measurement, the cells were washed 3 times with transport activity buffer (PBS+1 g/L D-glucose) warmed to 37° C. and incubated for 10 minutes at 37° C. in 500 μL of buffer. The transport activity measurement was initiated by addition of D-[^3H]serine-containing transport activity buffer at the indicated concentration. The reaction product produced after addition was incubated at 37° C. for the indicated time. The reaction was suspended by removing the D-[^3H] serine-containing transport activity buffer, and the product was washed 3 times with thoroughly cooled transport activity buffer. […] Protein concentration of the cell lysate was measured by BCA protein assay. The lysate was mixed with 1 mL of Emulsifier Safe (PerkinElmer, MA, USA) and the radioactivity of the lysate was measured with a β-scintillation counter (LSC-8000, Hitachi). […]

A further assay addresses T3, hSMCT2 (Homo sapiens, UniProt Q1EHB4).
T3 construct: expressed in transfected cells
T3 sequence (Q1EHB4 1-618): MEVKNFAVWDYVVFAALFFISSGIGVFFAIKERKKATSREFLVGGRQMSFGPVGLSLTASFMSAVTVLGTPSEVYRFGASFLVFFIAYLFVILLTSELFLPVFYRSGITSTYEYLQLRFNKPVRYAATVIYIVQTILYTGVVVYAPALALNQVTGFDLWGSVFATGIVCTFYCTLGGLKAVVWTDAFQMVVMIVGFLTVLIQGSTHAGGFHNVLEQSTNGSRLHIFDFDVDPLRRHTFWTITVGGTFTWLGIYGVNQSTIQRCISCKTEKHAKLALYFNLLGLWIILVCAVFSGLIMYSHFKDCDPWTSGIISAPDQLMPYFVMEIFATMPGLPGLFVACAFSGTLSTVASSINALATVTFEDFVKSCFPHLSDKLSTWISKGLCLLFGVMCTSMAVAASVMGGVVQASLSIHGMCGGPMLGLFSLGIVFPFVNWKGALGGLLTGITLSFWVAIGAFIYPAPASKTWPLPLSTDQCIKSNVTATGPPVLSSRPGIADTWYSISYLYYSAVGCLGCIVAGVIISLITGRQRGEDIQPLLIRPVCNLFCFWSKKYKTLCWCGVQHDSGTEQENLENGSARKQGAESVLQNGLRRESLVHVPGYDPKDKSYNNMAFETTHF
The assay can be described thus: D-[3H]serine uptake in FlpIn293TR-hSLC5A12-3×FLAG stable cell line. The format is cell-based. The conditions noted are these: 20 μM D-[3H]serine, 10 minutes. The procedure:
as §2

The subject of assay [3] is FlpIn293TR-hSLC5A12-3×FLAG (SMCT2)-stable cell line. The assay can be described thus: Toxicity test (XTT) in SMCT2-stable cell line. To be noted: 500 μM ibuprofen added with D-serine to SMCT2 cells. In kind it is cell-based. Here is the method:
(§3) A toxicity test for stable cells was carried out using an FlpIn293TR-stable cell line. The cells were seeded in a poly-D-lysine-coated 96-well plate at 6.5×10^3 cells/well (Mock) and 8×10^3 cells/well (hSLC5A8 and hSLC5A12 cells), while in antibiotic-free DMEM+dialyzed FBS medium. After 24 hours, they were treated with L- or D-serine at different concentrations and 1 mg/L of doxycycline hyclate was added to induce recombination gene expression. For the ASCT2 knockdown experiment, the seeded cells were transfected after 12 hours with ASCT2 siRNA at 2 pmol/well, using Lipofectamine 3000. The effect of ibuprofen was analyzed by simultaneous addition with D-serine treatment. The cells were cultured for 2 days to 80% confluence. The proliferated cell count was determined by XTT measurement in the same manner as described above.
For orientation: Tetrazolium dyes change colour on reduction, which living cells bring about.

In assay [4] the test system is FlpIn293TR-hSLC5A8-3×FLAG (SMCT1)-stable cell line. The assay can be described thus: Toxicity test (XTT) in SMCT1-stable cell line. In kind it is cell-based. The conditions noted are these: 500 μM ibuprofen added with D-serine to SMCT1 cells. The procedure: as §3

Protocol for ASCT2: The cell lines HEK293 and Flp-In TREx 293 were cultured at 37° C. in a 5% CO2 environment, using Dulbecco's Modified Eagle Medium (DMEM) containing 10% fetal bovine serum (FBS), 100 units/ml Penicillin G and 100 μg/ml streptomycin (P/S). The cells were seeded in a Poly-D-lysine coated 24-well plate at 6×10^4 cells/well. After culturing for 3 days in DMEM Medium containing 10% FBS and P/S, the cell were used for transport activity measurement. Before transport activity measurement, the cells were washed with transport activity measurement buffer (PBS+1 g/L D-glucose) prewarmed to 37° C. and incubated for 10 minutes at 37° C. in 500 μL of buffer. The transport activity measurement was initiated by addition of D-[^3H]serine-containing transport activity buffer at the indicated concentration. The reaction product produced after addition was incubated at 37° C. for the indicated time. The reaction was suspended by removing the D-[^3H]serine-containing transport activity buffer, and the product was washed 3 times with thoroughly cooled transport activity buffer. […] Protein concentration of the cell lysate was measured by BCA protein assay. The lysate was mixed with 1 mL of Emulsifier Safe (PerkinElmer, MA, USA) and the radioactivity of the lysate was measured with a β-scintillation counter (LSC-8000, Hitachi). […]

With S-benzyl-L-cystine [Benzyl-Cys], the “Uptake of D-[3H]serine” value in assay [1] was “inhibited”.
With `O=C(O)c1cccnc1` [nicotinic acid], the “Na+-dependent uptake inhibited” value in assay [2] (1 mM nicotinic acid, 10 μM D-[3H]serine, measuring time 30 seconds) is listed as “approximately 30%”.
Consider `NCCCC(=O)O` [GABA, γ-aminobutyric acid], for which the entries for the “[3H]D-serine transport” value on ASCT2 and in the assay with HEK293 cells were “inhibited” and “inhibit”, respectively.
As to `CSCC[C@H](N)C(=O)O` [L-methionine], the “Uptake of D-[3H]serine” value in assay [1] was “inhibited”. In the assay with HEK293 cells, the “[3H]D-serine transport” value is “inhibited”.
In the case of `CC(=O)Oc1ccccc1C(=O)O` [acetylsalicylic acid], the “D-[3H]serine transport” value on hSMCT1 and on hSMCT2 was “inhibited” throughout.
`CC(C)Cc1ccc(C(C)C(=O)O)cc1` (centres unmarked) [ibuprofen]: the “D-[3H]serine transport activity” value in assay [2] (1 and 3 mM ibuprofen, 50 μM D-[3H]serine, 1 minute) was “strongly inhibited”. The “effect of ibuprofen on D-serine effect on cell proliferation” value in assay [3] and in assay [4] was “reduced the D-serine effect to the same level as the Mock cells” each time. For the same compound, the “D-[3H]serine transport” value on hSMCT1 and on hSMCT2 was “inhibited” each time.
Consider `C[C@@H](O)[C@H](N)C(=O)O` [L-threonine], for which, in assay [2] (2 mM L-threonine, 10 μM D-[3H]serine, measuring time 30 seconds), the uptake activity inhibited result is “About 70%”. For the same compound, the “Uptake of D-[3H]serine” value in assay [1] is given as “inhibited”. Further, in the assay on HEK293 cells, the “[3H]D-serine transport” value is on record as “inhibited”.
As to `N[C@@H](CCC(=O)Nc1ccc([N+](=O)[O-])cc1)C(=O)O` [GPNA, L-γ-glutamyl-p-nitroanilide], the “Uptake of D-[3H]serine” value in assay [1] is listed as “inhibited”.

Values taken from patent US20230220387A1, “D-SERINE TRANSPORT MODIFIER AND SCREENING METHOD THEREOF, AND SCREENING METHOD OF D-SERINE TRANSPORTER PROTEIN” (Kagami Inc., priority 2019, published 2023).
